From US20260207563A1, “UREA COMPOUNDS AS ACTIVATORS OF POTASSIUM CHANNELS KV7.2/7.3 USEFUL IN THE TREATMENT OF CNS AND PNS DISORDERS” (ANGELINI PHARMA S.P.A., priority 2022, published 2026)

Biological target: T1, heteromeric KV7.2/KV7.3 channels (KCNQ2, KCNQ3) (Homo sapiens, UniProt O43525+O43526)
T1 construct: expressed in transfected cells; host or cells: CHO-K1
Assay: Automated patch-clamp (Sophion Qube 384) potency assay against KV7.2/KV7.3 channels
Assay type: cell-based
Conditions: CHO-K1/Kv7.2/Kv7.3 cells; for EC50: EC50 from concentration-response of shift in Vhalf, 10 concentrations up to 30 μM, read-out: Kv7.2/7.3 EC50; for Kv7.2/7.3 ΔV1/2: maximal shift in the Vhalf from the top of the curve
Description: Assessment of In Vitro Potency Against KV7.2/KV7.3 Channels
An automated patch-clamp assay on the Sophion Qube 384 was developed for potency testing to identify small molecule activators of heteromeric KV7.2/KV7.3 channels (KCNQ2, Uniprot ID 043526; KCNQ3, Uniprot 043525).
The cell line used was a stably transfected CHO-K1 cell line with constitutive KV7.2/KV7.3 expression.
CHO-K1/Kv7.2/Kv7.3 cells were maintained in the following culture media: • DMEM/F-12 with GlutaMAX™ (Gibco 31331-028), • 10% Fetal clone 2 serum (Perbio Science SH30066.03), • 1 mg/ml Geneticin™ selective antibiotic (G418, Invitrogen 1013027), and • 5 μg/ml BlasticidinS HCl (Invivogen Ant-bl-5).
On the day of the experiment, cells were resuspended in serum free media, counted and diluted to a final concentration of 3.5×10^6 cells per ml of media.
Cells were then placed onto the Sophion Qube 384 and rested for a minimum of 1 hour.
The following solutions were used for recording: • extracellular solution (in mM): 145 NaCl, 4 KCl, 1 MgCl2, 2 CaCl2), 10 HEPES, 10 glucose, pH 7.4, 315-320 mOsm. • intracellular solution (in mM): 120 KCl, 5.74 CaCl2), 1.75 MgCl2, 10 EGTA, 10 HEPES, 5 Na2ATP, pH 7.2, adjusted to 315 mOsm with sucrose.
After establishing the whole-cell configuration, cells were held at −80 mV throughout the experiment. A current-voltage (I-V) protocol stepping from −100 to +20 mV for 1 second was applied to measure Kv7.2/Kv7.3 currents, each step was followed by a 200 ms pulse to 0 mV to measure the tail currents. From the I-V protocol a Boltzmann fit was applied to generate activation curves. Data were sampled at 25 kHz and filtered at 5 kHz (Bessel). Data were produced using multihole QChips. The I-V protocol was applied several times to establish the response in control conditions (typically 0.3% DMSO) and in the presence of the test compound.
Data were reviewed in Sophion Analyser version 6.5.2 (Sophion Bioscience) for recording quality and filters were applied to remove any failed wells. Leak subtraction was applied to all recordings. Data filters for multihole QChips were typically: seal resistance>4 MΩ, capacitance >20 pF, baseline VHalf between 0 to −40 mV, baseline holding current between −2 to 2 nA, baseline steady state current at 20 mV >4 nA unless otherwise stated.
Analysis of Data for Assessment of Potency
10 concentrations of test compounds were applied to individual wells in quadruplicate to assess potency as a 1 in 3 dilution series from the maximal concentration of 30 μM. The average shift in the voltage for half activation (Vhalf) for each concentration was used to generate concentration-response curves fitted with a 4-parameter logistic model to estimate the EC50 from the point of inflection of the curve and the maximal shift in the Vhalf from the top of the curve.
The lower the EC50 value, the higher the potency of the analyzed compound. The selectivity criteria is assigned on the basis of the maximal shift in the Vhalf at 30 μM. […] In Table 3, ND means that selectivity was not determined.

EC50 [µM]	Kv7.2/7.3 ΔV1/2 [mV]	Structure (SMILES)
0.68	31.5	O=C(NCc1ccnc(OCC(F)(F)F)c1)N[C@H](C1CC1)C(F)(F)F [Compound 213]
8.95	30.24	O=C(NCc1ccnc(OCC(F)(F)F)c1)N[C@@H]1CCN(CC(F)(F)F)C1 [Compound 214]
4.17	24.17	COc1ccc([C@H](CF)NC(=O)NCc2ccnc(OCC(F)(F)F)c2)cc1 [Compound 215]
1.4	49.32	O=C(NCc1ccnc(OCC(F)(F)F)c1)N[C@@H]1CCCc2c(F)cccc21 [Compound 216]
1.76	29.44	C#CCOc1cc(CNC(=O)N[C@@H]2CCCc3c(F)cccc32)ccn1 [Compound 217]
8	21.41	O=C(NCc1ccnc(OCC(F)(F)F)c1)NC1(C(F)(F)F)COC1 [Compound 218]
2.26	35.95	O=C(NCc1ccnc(OCC(F)(F)F)c1)NCC12CC(F)(C1)C2 [Compound 219]
11.8	29.83	O=C(NCc1ccnc(OCC(F)(F)F)c1)N[C@H]1COC[C@H]1c1ccc(F)cc1 [Compound 220]
3.2	35.15	C[C@@H](Oc1cc(CNC(=O)N[C@@H]2COc3ccccc3C2)ncn1)C(F)(F)F [Compound 221]
4.16	28.1	O=C(NCc1ccnc(OCC(F)(F)F)c1)N[C@@H]1COC[C@H]1Oc1cccc(F)c1 [Compound 222]
7.4	41.12	C[C@@H](Oc1cc(CNC(=O)N[C@@H](C2CC2)C(F)(F)F)ncn1)C(F)(F)F [Compound 223]
3.43	37.09	C[C@@H](Oc1cc(CNC(=O)N[C@H](C2CC2)C(F)(F)F)ncn1)C(F)(F)F [Compound 224]
6.41	42.13	C[C@@H](Oc1cc(CNC(=O)N[C@@H]2CCOc3cc(F)ccc32)ncn1)C(F)(F)F [Compound 225]
1.83	22.4	C[C@@H](NC(=O)NCc1ccnc(OCC(F)(F)F)c1)c1ccc2c(c1)OC(F)(F)O2 [Compound 226]
1.86	31.71	C[C@@H](NC(=O)NCc1ccnc(OCC(F)(F)F)c1)c1cccc2c1OC(F)(F)O2 [Compound 227]
0.97	20.27	O=C(NCc1ccnc(OCC(F)(F)F)c1)NCC12CC(C(F)(F)F)(C1)C2 [Compound 228]
12.7	76.14	O=C(NCc1ccnc(OCC(F)(F)F)c1)N[C@@H]1COC[C@H]1c1ccc(F)cc1 [Compound 229]
1.77	20.02	O=C(NCc1ccnc(OCC(F)(F)F)c1)N[C@H]1COC[C@@H]1c1ccc(F)cc1 [Compound 230]
> 30	49.96	O=C(NCc1ccnc(OCC(F)(F)F)c1)N[C@H]1CN(CC(F)(F)F)C[C@@H]1c1ccccc1 [Compound 231]

EC50 [µM]	Kv7.2/7.3 ΔV1/2 [mV]	Structure (SMILES)
1.43	23.95	O=C(NCc1ccnc(OCC(F)(F)F)c1)N[C@@H]1CN(CC(F)(F)F)C[C@H]1c1ccccc1 [Compound 232]
2.52	28.00	COc1ccc([C@H](NC(=O)NCc2ccnc(OCC(F)(F)F)c2)C(F)(F)F)cc1 [Compound 233]
5.26	27.37	O=C(NCc1ccnc(OCC(F)(F)F)c1)N[C@@H]1COC[C@H]1Oc1ccc(F)cc1 [Compound 234]
6.22	21.79	O=C(NCc1ccnc(OCC(F)(F)F)c1)N[C@@H]1COC2(CC2)C1 [Compound 235]
11.9	31.52	O=C(NCc1ccnc(OCC(F)(F)F)c1)N[C@H]1C[C@H]2CC[C@@H]1O2 [Compound 236]
11.7	29.76	O=C(NCc1ccnc(OCC(F)(F)F)c1)N[C@@H]1C[C@@H]2CC[C@H]1O2 [Compound 237]
2.91	24.31	C[C@@H](NC(=O)NCc1ccnc(OCC(F)(F)F)c1)c1ccc(OC(F)(F)F)cc1 [Compound 238]
5.1	20.11	O=C(NCc1ccnc(OCC(F)(F)F)c1)NCC12CC(F)(CO1)C2 [Compound 239]
11.7	46.27	O=C(NCc1ccnc(OCC(F)(F)F)c1)N[C@H]1COC2(CC2)C1 [Compound 240]
3.32	36.71	COc1cccc(N2C[C@H](NC(=O)NCc3ccnc(OCC(F)(F)F)c3)C(F)(F)C2)c1 [Compound 241]
2.98	34.51	O=C(NCc1ccnc(OCC(F)(F)F)c1)N[C@@H]1CCO[C@H]1c1ccc(F)cc1 [Compound 242]
3.73	26.56	O=C(NCc1ccnc(OCC(F)(F)F)c1)N[C@@H]1COC[C@H]1Oc1ccccc1F [Compound 243]
7.59	26.21	C[C@@H](Oc1cc(CNC(=O)NCC23CC(F)(C2)C3)ncn1)C(F)(F)F [Compound 244]
2.19	46.39	O=C(NCc1ccnc(OCC(F)(F)F)c1)N[C@@H]1CCO[C@H](c2ccc(F)cc2)C1 [Compound 245]
1.76	22.48	Cn1ncc(C(F)(F)F)c1COc1cc(CNC(=O)NCCC2(C(F)(F)F)CC2)ccn1 [Compound 246]
5.05	24.56	Cc1cnc(COc2cc(CNC(=O)NCCC3(C(F)(F)F)CC3)ccn2)o1 [Compound 247]
2.61	23.91	O=C(NCc1ccnc(OCC(F)(F)F)c1)NCc1ccnc(OCC(F)(F)F)c1 [Compound 248]
3.42	26.44	O=C(NCc1ccnc(OCC(F)(F)F)c1)N[C@@H]1COc2cc(OC(F)(F)F)ccc21 [Compound 249]
2.58	21.04	O=C(NCCC1(C(F)(F)F)CC1)NCc1ccnc(OCC2CC2(F)F)c1 (stereo not shown) [Compound 250]
